Molecules are shown by their SMILES.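 Dose response: 5 concentrations. Exposure: 48 h. Format: 96-well plates. Endpoint: linear interpolation; highest concentration if not reached. GI50 marks 50% less growth.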 Calls of active or inactive are those of the source. Cut-off read from the data, not from the text of the source: active = GI50 up to about 1.1 µM and inactive = higher.

These results are taken from ChEMBL document CHEMBL1201862, “PubChem BioAssay data set” (2004).

Among the test systems are IGROV-1; SK-MEL-5; MDA-MB-435; OVCAR-3; SF-268; CCRF-CEM; HCT-15; RPMI-8226; MDA-MB-231; UACC-257; OVCAR-8; KM12; 786-0; PC-3; SNB-19; T47D; CAKI-1; OVCAR-4; HCC 2998; RXF 393.
Assay in all cases: NCI anticancer screen, dose series, 48 h

Turning to `O=C/C=C/c1ccco1`, the GI50 with IGROV-1 is > 100 µM (inactive); in the experiment on SK-MEL-5, > 100 µM (inactive); in the experiment with MDA-MB-435, > 100 µM (inactive); with OVCAR-3, > 100 µM (inactive); with SF-268, > 100 µM (inactive); with CCRF-CEM, 9.48 µM (inactive). For the same molecule, the GI50 in the experiment with HCT-15 was above 100 µM; with RPMI-8226 it was > 100 µM (inactive); in the experiment on MDA-MB-231, > 100 µM (inactive); in the experiment on UACC-257 it was > 100 µM (inactive); with OVCAR-8, > 100 µM (inactive); in the experiment on KM12 it was > 100 µM (inactive). In addition, the GI50 in the experiment with 786-0, with PC-3, with SNB-19, with T47D, with CAKI-1 and in the experiment on OVCAR-4 was > 100 µM (inactive) throughout. Besides, the GI50 with HCC 2998 and in the experiment on RXF 393 was > 100 µM (inactive) in each case.

In the case of `O=C1c2ccccc2C(=O)c2c(OCC3CO3)ccc(OCC3CO3)c21` (stereo not given), the GI50 was 3.54 µM (inactive) in the experiment on IGROV-1; 5.69 µM (inactive) in the experiment on SK-MEL-5; 2.7 µM (inactive) in the experiment with MDA-MB-435; 3.4 µM (inactive) in the experiment with OVCAR-3; 0.346 µM (active) in the experiment with SF-268; < 0.0167 µM (active) in the experiment on CCRF-CEM. Moreover, the GI50 is 1.74 µM with HCT-15; 6 µM (inactive) with RPMI-8226; 12.5 µM (inactive) in the experiment on MDA-MB-231; 6.04 µM (inactive) with UACC-257; 1.48 µM (inactive) in the experiment with OVCAR-8; 5.04 µM (inactive) with KM12. Further, the GI50 in the experiment with 786-0 was 1.48 µM (inactive); in the experiment with PC-3, 4.42 µM (inactive); in the experiment on SNB-19, 7.67 µM (inactive); in the experiment on T47D, 6 µM (inactive); in the experiment on CAKI-1, 1.91 µM (inactive); in the experiment with OVCAR-4, 6.52 µM (inactive). For the same molecule, the values for the GI50 in the experiment on HCC 2998 and with RXF 393 were 16.1 µM (inactive) and 3.96 µM (inactive), respectively.

For `CC(CN(C)C)C(O)(c1ccccc1)c1ccccc1` (stereo not given), the GI50 in the experiment with IGROV-1, with SK-MEL-5, in the experiment on MDA-MB-435, in the experiment on OVCAR-3, in the experiment with SF-268 and in the experiment with CCRF-CEM was > 100 µM (inactive) each time. Further, the GI50 is above 100 µM in the experiment on HCT-15; > 100 µM (inactive) with RPMI-8226; > 100 µM (inactive) in the experiment on MDA-MB-231; > 100 µM (inactive) in the experiment on UACC-257; > 100 µM (inactive) in the experiment on OVCAR-8; > 100 µM (inactive) in the experiment on KM12. Moreover, the GI50 with 786-0, in the experiment on PC-3, in the experiment with SNB-19, with T47D, in the experiment on CAKI-1 and with OVCAR-4 was > 100 µM (inactive) in each case. For the same molecule, the figures for the GI50 in the experiment with HCC 2998 and with RXF 393 were 27.2 µM (inactive) and > 100 µM (inactive), respectively.

As to `COc1c(C=O)c2c(c(OC)c1OC)-c1ccc(OC)c(=O)cc1[C@@H](NC(C)=O)CC2`, the GI50 in the experiment on IGROV-1 was 0.0461 µM (active); in the experiment on SK-MEL-5 it was 0.0241 µM (active); in the experiment with MDA-MB-435, < 0.01 µM (active); with OVCAR-3, 0.0327 µM (active); in the experiment on SF-268, 0.0444 µM (active); in the experiment with CCRF-CEM, < 0.0128 µM (active). Moreover, the GI50 is 0.849 µM with HCT-15; < 0.01 µM (active) with RPMI-8226; 0.352 µM (active) in the experiment on MDA-MB-231; 0.0826 µM (active) with UACC-257; 0.0444 µM (active) in the experiment with OVCAR-8; 0.0134 µM (active) in the experiment on KM12. The GI50 is 0.132 µM (active) in the experiment with 786-0; 0.0375 µM (active) in the experiment with PC-3; 0.144 µM (active) with SNB-19; > 100 µM (inactive) in the experiment on T47D; 0.703 µM (active) in the experiment with CAKI-1; 38.9 µM (inactive) in the experiment on OVCAR-4. Further, the GI50 in the experiment with HCC 2998 is 0.0637 µM (active); in the experiment on RXF 393 it was 0.148 µM (active).

As to `NC(=O)c1ccc(NCC2=CC(=O)C=CC2=O)cc1`, the GI50 in the experiment on IGROV-1 is 20.8 µM (inactive); with SK-MEL-5, 15.5 µM (inactive); with MDA-MB-435, 17.2 µM (inactive); in the experiment with OVCAR-3, 16.3 µM (inactive); in the experiment on SF-268, 22.9 µM (inactive); in the experiment with CCRF-CEM, 7.01 µM (inactive). Also, the GI50 with HCT-15 was 19.2 µM; in the experiment with RPMI-8226 it was 18.7 µM (inactive); in the experiment on MDA-MB-231, 20.1 µM (inactive); in the experiment with UACC-257, 21.1 µM (inactive); with OVCAR-8 it was 20.4 µM (inactive); with KM12, > 100 µM (inactive). The GI50 was 19.6 µM (inactive) in the experiment with 786-0; 18.6 µM (inactive) with PC-3; > 100 µM (inactive) in the experiment with SNB-19; 28.1 µM (inactive) with T47D; 19.1 µM (inactive) in the experiment with CAKI-1; 19.8 µM (inactive) with OVCAR-4. The results for the GI50 in the experiment on HCC 2998 and in the experiment with RXF 393 were 35.8 µM (inactive) and 18.7 µM (inactive), respectively.

In the case of `CCN(CC)/C(SCc1ccccc1)=C(\C(Cl)=C(Cl)Cl)[N+](=O)[O-]`, the GI50 was 17.2 µM (inactive) in the experiment on IGROV-1; 16.3 µM (inactive) in the experiment with SK-MEL-5; 17.7 µM (inactive) in the experiment on MDA-MB-435; 11.7 µM (inactive) in the experiment on OVCAR-3; 18.4 µM (inactive) in the experiment with SF-268; 12.5 µM (inactive) in the experiment on CCRF-CEM. Besides, the GI50 with HCT-15 is 25.5 µM; in the experiment on RPMI-8226, 14.9 µM (inactive); with MDA-MB-231, 27.1 µM (inactive); with UACC-257, 17.5 µM (inactive); with OVCAR-8, 16.9 µM (inactive); in the experiment on KM12, 21 µM (inactive). The GI50 with 786-0 is 16 µM (inactive); with PC-3 it was 21.6 µM (inactive); with SNB-19, 28.9 µM (inactive); in the experiment with T47D, 18.9 µM (inactive); with CAKI-1, 28.2 µM (inactive); in the experiment on OVCAR-4, 15.6 µM (inactive). For the same molecule, the GI50 with HCC 2998 is 21.2 µM (inactive); with RXF 393, 13.1 µM (inactive).

Regarding `CCC1(CC)SCc2nc3ccccc3n21`, the GI50 was 34.2 µM (inactive) in the experiment on IGROV-1; 20.9 µM (inactive) with SK-MEL-5; 26 µM (inactive) in the experiment with MDA-MB-435; 32.1 µM (inactive) with OVCAR-3; 52 µM (inactive) in the experiment with SF-268; 33.4 µM (inactive) in the experiment with CCRF-CEM. Also, the GI50 in the experiment with HCT-15 was 36.2 µM; in the experiment with RPMI-8226, 24.9 µM (inactive); in the experiment with MDA-MB-231 it was 29.6 µM (inactive); in the experiment with UACC-257, 27.4 µM (inactive); with OVCAR-8, 38.4 µM (inactive); in the experiment on KM12, 23.9 µM (inactive). For the same molecule, the GI50 was 66.4 µM (inactive) in the experiment with 786-0; 13.8 µM (inactive) in the experiment with PC-3; 53.2 µM (inactive) in the experiment on SNB-19; 49.7 µM (inactive) in the experiment on T47D; 35.2 µM (inactive) in the experiment with CAKI-1; 20.6 µM (inactive) in the experiment with OVCAR-4. Also, the GI50 in the experiment with HCC 2998 is 94.6 µM (inactive); in the experiment with RXF 393, 32.2 µM (inactive).
